# Square brackets hold non-standard residues; d marks the D form. Ends that are not written are not given here. Peptide text beside a SMILES is read from it. hSer = N[C@@H](CCO)C(=O)O
# What was measured:
# Bacillus megaterium [1] = settings: from the literature; cited from earlier work
# P. aeruginosa = assay: Agar-well halo assay of bactericidal activity; format: cell-based, Pseudomonas aeruginosa; settings: overnight incubation at 25° C.
# Method: (§1) The assay for antimicrobial activity was performed by pouring 10 ml of agar in TYE media containing about 10^7 viable cells of the test organisms. Wells, 2 mm in diameter, were punched in the agar plates. Aliquots of the modified cecropin-like polypeptides (2-12 ul) were then added to each well. The diameter of the inhibition zones, or haloes, around the wells, were measured after overnight incubation at 25° C.
# (§2) The activities of various cecropin-like polypeptides were tested against both Gram-negative and Gram-positive organisms. Anti-microbial activity against the Gram-negative organisms remained unaltered for most of the Gram-negative bacteria (except, i.e., Serratia marcescens) as shown in Table 1. […] To determine a standard of halo formation, the various modified cecropin-like polypeptides were also applied to E. coli D21. Activity shown in Tables 1 and 2 is expressed as the ratio of the radius of the cleared halo for each organism versus that for E. coli D21.
# E. coli MC1061 = assay: Agar-well halo assay of bactericidal activity; format: cell-based, Escherichia coli; settings: overnight incubation at 25° C.
# Method: as §1, §2
# B. subtilis = assay: Agar-well halo assay of bactericidal activity; format: cell-based, Bacillus subtilis; settings: for Relative activity (ratio of the radius of the cleared halo versus that for E. coli D21): B. subtilis, overnight incubation at 25° C.
# Method: as §1, §2
# (§3) The cecropin-like polypeptide modified at the carboxy terminus with ethylenediamine and naturally occurring cecropin A were tested against a variety of organisms. The relative activities of the antimicrobial agents were expressed per nanomole of polypeptide applied to each well (Table 3).
# S. typhimurium = assay: Agar-well halo assay of bactericidal activity; format: cell-based, Salmonella typhimurium; settings: overnight incubation at 25° C.
# Method: as §1, §2
# E. cloacae = assay: Agar-well halo assay of bactericidal activity; format: cell-based; settings: overnight incubation at 25° C.
# Method: as §1, §2
# Bacillus megaterium [2] = assay: Agar-well halo assay of bactericidal activity; format: cell-based; settings: for Relative activity (ratio of the radius of the cleared halo versus that for E. coli D21): B. megaterium, overnight incubation at 25° C.
# Method: as §1, §2, §3
# Micrococcus luteus = assay: Agar-well halo assay of bactericidal activity; format: cell-based; settings: for Relative activity (ratio of the radius of the cleared halo versus that for E. coli D21): M. luteus, overnight incubation at 25° C.
# Method: as §1, §2, §3
# Streptococcus faecalis = assay: Agar-well halo assay of bactericidal activity; format: cell-based; settings: for Relative activity (ratio of the radius of the cleared halo versus that for E. coli D21): S. faecalis, overnight incubation at 25° C.
# Method: as §1, §2, §3
# Escherichia coli = assay: Agar-well halo assay, activity per nanomole; format: cell-based; settings: per nanomole of polypeptide applied to each well
# Method: as §1, §3
Compound,Sensitivity of Bacillus megaterium to the cecropin (Bacillus megaterium [1]),Relative activity (ratio of the radius of the cleared halo versus that for E. coli D21) (P. aeruginosa),Relative activity (ratio of the radius of the cleared halo versus that for E. coli D21) (E. coli MC1061),Relative activity (ratio of the radius of the cleared halo versus that for E. coli D21) (B. subtilis),Relative activity (ratio of the radius of the cleared halo versus that for E. coli D21) (S. typhimurium),Relative activity (ratio of the radius of the cleared halo versus that for E. coli D21) (E. cloacae),Relative activity (ratio of the radius of the cleared halo versus that for E. coli D21) (Bacillus megaterium [2]),Relative activity (ratio of the radius of the cleared halo versus that for E. coli D21) (Micrococcus luteus),Relative activity (ratio of the radius of the cleared halo versus that for E. coli D21) (Streptococcus faecalis),"Activity per Nanomole (radius of the inhibitory ring) (B. subtilis; Bacillus subtilus, per nanomole of polypeptide applied to each well) [millimeters]",Activity per Nanomole (radius of the inhibitory ring) (Escherichia coli) [millimeters],"Activity per Nanomole (radius of the inhibitory ring) (Bacillus megaterium [2]; Bacillus megaterium, per nanomole of polypeptide applied to each well) [millimeters]","Activity per Nanomole (radius of the inhibitory ring) (Micrococcus luteus; Micrococcus luteus, per nanomole of polypeptide applied to each well) [millimeters]","Activity per Nanomole (radius of the inhibitory ring) (Streptococcus faecalis; Streptococcus faecalis, per nanomole of polypeptide applied to each well) [millimeters]"
"cecropin B (KWKVFKKIEKMGRNIRNGIVKAGPAIAVLGEAKAL; ends and bridges not checked; UniProt P01508 27-61, looked up) [major natural antibacterial peptide purified from immune hemolymph]",highly sensitive,,,,,,,,,,,,,
KWKLFKKIEKVGQNIRDGIIKAGPAVAVVGQATQIAK [CA-COOH],,0.70,0.84,0,1.09,0.84,0.2,0,0,,,,,
"KWKLFKKIEKVGQNIRDGIIKAGPAVAVVGQATQIAK-NH2 [CA-NH2, cecropin A, reference compound]",highly sensitive,0.70,0.80,0.1 ± 0.05,1.06,0.92,0.7,1.2 ± 0.2,0,< 0.5,6.1,5.1,6.1,< 0.5
CC[C@H](C)[C@H](NC(=O)CNC(=O)[C@H](CC(=O)O)NC(=O)[C@H](CCCNC(=N)N)NC(=O)[C@@H](NC(=O)[C@H](CC(N)=O)NC(=O)[C@H](CCC(N)=O)NC(=O)CNC(=O)[C@@H](NC(=O)[C@H](CCCCN)NC(=O)[C@H](CCC(=O)O)NC(=O)[C@@H](NC(=O)[C@H](CCCCN)NC(=O)[C@H](CCCCN)NC(=O)[C@H](Cc1ccccc1)NC(=O)[C@H](CC(C)C)NC(=O)[C@H](CCCCN)NC(=O)[C@H](Cc1c[nH]c2ccccc12)NC(=O)[C@@H](N)CCCCN)[C@@H](C)CC)C(C)C)[C@@H](C)CC)C(=O)N[C@H](C(=O)N[C@@H](CCCCN)C(=O)N[C@@H](C)C(=O)NCC(=O)N1CCC[C@H]1C(=O)N[C@@H](C)C(=O)N[C@H](C(=O)N[C@@H](C)C(=O)N[C@H](C(=O)N[C@H](C(=O)NCC(=O)N[C@@H](CCC(N)=O)C(=O)N[C@@H](C)C(=O)N[C@H](C(=O)N[C@@H](CCC(N)=O)C(=O)N[C@H](C(=O)N[C@@H](C)C(=O)N[C@@H](CCCCN)C(=O)N[C@@H](CCO)C(=O)O)[C@@H](C)CC)[C@@H](C)O)C(C)C)C(C)C)C(C)C)[C@@H](C)CC [CA-HS-COOH] (H-KWKLFKKIEKVGQNIRDGIIKAGPAVAVVGQATQIAK[hSer]-OH),,0.76,0.86,0,1.07,0.79,0.5,0.1 ± 0.1,0,,,,,
CC[C@H](C)[C@H](NC(=O)CNC(=O)[C@H](CC(=O)O)NC(=O)[C@H](CCCNC(=N)N)NC(=O)[C@@H](NC(=O)[C@H](CC(N)=O)NC(=O)[C@H](CCC(N)=O)NC(=O)CNC(=O)[C@@H](NC(=O)[C@H](CCCCN)NC(=O)[C@H](CCC(=O)O)NC(=O)[C@@H](NC(=O)[C@H](CCCCN)NC(=O)[C@H](CCCCN)NC(=O)[C@H](Cc1ccccc1)NC(=O)[C@H](CC(C)C)NC(=O)[C@H](CCCCN)NC(=O)[C@H](Cc1c[nH]c2ccccc12)NC(=O)[C@@H](N)CCCCN)[C@@H](C)CC)C(C)C)[C@@H](C)CC)C(=O)N[C@H](C(=O)N[C@@H](CCCCN)C(=O)N[C@@H](C)C(=O)NCC(=O)N1CCC[C@H]1C(=O)N[C@@H](C)C(=O)N[C@H](C(=O)N[C@@H](C)C(=O)N[C@H](C(=O)N[C@H](C(=O)NCC(=O)N[C@@H](CCC(N)=O)C(=O)N[C@@H](C)C(=O)N[C@H](C(=O)N[C@@H](CCC(N)=O)C(=O)N[C@H](C(=O)N[C@@H](C)C(=O)N[C@@H](CCCCN)C(=O)N[C@@H](CCO)C(N)=O)[C@@H](C)CC)[C@@H](C)O)C(C)C)C(C)C)C(C)C)[C@@H](C)CC [CA-HS-CONH2] (H-KWKLFKKIEKVGQNIRDGIIKAGPAVAVVGQATQIAK[hSer]-NH2),,0.71,0.81,0.06 ± 0.06,1.09,0.86,0.4,1.4 ± 0.2,0,,,,,
cecropin D,relatively resistant,,,,,,,,,,,,,
